How the values were obtained:
T7 RNA polymerase [1] = target: T1, T7 RNA polymerase (Escherichia phage T7, UniProt P00573)
Method: The reaction was started by the addition of 20 μl of 10 mM 2′-(2-Nitrobenzyl)-ATP and incubated for 2 hours at 37° C. Subsequently the reaction was split into 4 samples and subjected to deprotection: two samples were exposed to UV irradiation as described above, two untreated samples were incubated for the same period of time at ambient temperature. Deprotection was followed by addition of 1 volume of either extension mix containing 250 μM rNTPs in transcription buffer, or addition of transcription buffer only. Samples were then incubated for another 1 hour at 37° C.
Processing, separation and detection of products was done as described above.

T7 RNA polymerase [2] = target: T1, T7 RNA polymerase; conditions: elongation mode complexes on duplex DNA substrates
T7 RNA polymerase [3] = target: T1, T7 RNA polymerase; assay: Primer extension reactions with RNA/DNA scaffold and T7 RNA polymerase; format: biochemical; parameters: purchased Fermentas; conditions: for extension of the RNA primer of the scaffold: sole nucleotide offered, template encodes rATP then rGTP, FIG. 2B
Method: The nucleic acid scaffolds were formed by incubating 1 nmol RNA-1 (5′-biotin-AACUGCGGCGAU-3′ (SEQ ID NO:1)) and 1 nmol DNA-1 (5′-[…]-3′ (SEQ ID NO:2)) in 100 μl transcription buffer (200 mM Tris-HCl (pH 7.9 at 25° C.), 30 mM MgCl2, 50 mM DTT, 50 mM NaCl, 10 mM spermidine) for 10 minutes at 70° C. Annealing occurred by slowly lowering the temperature to 25° C. The concentration of hybrid was assumed to be 10 μM.
For the primer extension reactions 2 pmoles of scaffold were mixed with 10 units of T7 RNA polymerase (Fermentas) in 9 μl transcription buffer to allow the transcription complex to form. Reactions were started by the addition of 1 μl of 1 mM nucleotide solution and incubated for 20 minutes at 37° C. Reactions were stopped by addition of 2 μl 500 mM EDTA and cooled on ice. UV irradiation was done for 10 minutes on a UV lamp.
Samples were precipitated, dissolved in formamide loading buffer and resolved on a denaturing 16% polyacrylamide gel (8M urea). Gels were electroblotted onto nylon-membrane (Osmonics, USA) in blotting buffer (0.5×TBE). Blots were incubated in blocking buffer (1×TBSTw/1% blocking reagent (Roche)) for 1 hour at room temperature to avoid non-specific noise, incubated with 0.5 μg/ml streptavidin-HRP (Sigma) in blocking buffer for 1 hour and washed extensively in Tris buffered saline containing 0.1% Tween-20. Detection was performed using a chemiluminescent substrate according to the instructions of the manufacturer (Pierce).

T1 sequence (P00573 whole entry): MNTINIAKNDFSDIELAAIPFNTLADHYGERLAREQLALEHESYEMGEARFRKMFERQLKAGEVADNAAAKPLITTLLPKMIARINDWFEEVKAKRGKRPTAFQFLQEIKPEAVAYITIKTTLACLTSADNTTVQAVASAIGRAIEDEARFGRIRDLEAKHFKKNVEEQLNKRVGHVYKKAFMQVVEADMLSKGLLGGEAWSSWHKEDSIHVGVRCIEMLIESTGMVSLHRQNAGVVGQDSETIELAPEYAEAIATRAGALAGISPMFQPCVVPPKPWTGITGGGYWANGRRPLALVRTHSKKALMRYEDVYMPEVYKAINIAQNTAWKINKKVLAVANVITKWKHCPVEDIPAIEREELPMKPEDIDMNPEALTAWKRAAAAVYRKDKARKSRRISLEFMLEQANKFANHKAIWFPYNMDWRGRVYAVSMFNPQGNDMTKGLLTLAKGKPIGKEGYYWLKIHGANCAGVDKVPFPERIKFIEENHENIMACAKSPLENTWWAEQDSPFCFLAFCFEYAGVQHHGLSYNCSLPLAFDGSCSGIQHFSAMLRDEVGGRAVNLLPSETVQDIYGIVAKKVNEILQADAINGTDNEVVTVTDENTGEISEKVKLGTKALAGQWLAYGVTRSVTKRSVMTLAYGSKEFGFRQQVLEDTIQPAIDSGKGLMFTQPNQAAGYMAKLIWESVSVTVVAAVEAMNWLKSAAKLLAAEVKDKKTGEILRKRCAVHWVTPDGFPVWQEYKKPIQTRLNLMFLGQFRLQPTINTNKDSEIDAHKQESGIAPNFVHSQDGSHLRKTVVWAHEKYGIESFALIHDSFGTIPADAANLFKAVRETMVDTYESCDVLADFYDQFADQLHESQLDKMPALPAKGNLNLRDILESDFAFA

Nc1ncnc2c1ncn2[C@@H]1O[C@H](COP(=O)(O)OP(=O)(O)OP(=O)(O)O)[C@@H](O)[C@H]1OCc1ccccc1[N+](=O)[O-] [2′-(2-Nitrobenzyl)-ATP]
reversal of termination on deprotection (T7 RNA polymerase [1]; UV irradiation 10 minutes, then 250 μM rNTPs extension mix, 1 hour at 37° C., FIG. 3 lane 4): Elongation of the transcript can resume upon removal of the protecting 2-Nitrobenzyl group by UV irradiation | termination of transcription (T7 RNA polymerase [1]; scaffold + T7 RNAP + 2′-(2-Nitrobenzyl)-ATP 2 hours at 37° C., no UV, then rNTPs, FIG. 3 lane 3): acts as a bona fide terminator of transcription | incorporation into a growing RNA chain (T7 RNA polymerase [2]): we have not observed this activity | incorporation of the nucleotide analog into a growing RNA chain (T7 RNA polymerase [3]; RNA/DNA scaffold, 10 units T7 RNA polymerase, 1 μl of 1 mM nucleotide solution, 20 minutes at 37° C., gel mobility before and after UV): incorporation into the nascent RNA chain by T7 RNAP

Nc1ncnc2c1ncn2[C@@H]1O[C@H](COP(=O)(O)OP(=O)(O)OP(=O)(O)O)[C@@H](O)[C@H]1O [rATP, adenosine 5′-triphosphate]
extension of the RNA primer of the scaffold (T7 RNA polymerase [3]): extended by one or two bases

Nc1ccn([C@@H]2O[C@H](COP(=O)(O)OP(=O)(O)OP(=O)(O)O)[C@@H](O)[C@H]2O)c(=O)n1 [rCTP, cytidine 5′-triphosphate]
extension of the RNA primer of the scaffold (T7 RNA polymerase [3]): extension is limited to one base only

— US20130045475A1, “2-Nitrobenzyl-Modified Ribonucleotides” (ALERE SAN DIEGO, INC., priority 2004, published 2013)
